Laboratory results from US7008905B2, “Method of combating undesired plant growth on cereals” (BASF Aktiengesellschaft, priority 2000, dated 2006).

Legend:
Type in all cases: in vivo
[1] = system: Apera spica-venti; assay: Pre-emergence test, weed control; conditions: 3 weeks after treatment, rating 0-100 (100=death), Table 1
Method in brief: (§1)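 Herbicidal effect was scored visually on a 0–100 scale (100 = death, 0 = untreated-like) three weeks after treatment. Soil was horticultural loam sprayed just after sowing with aqueous-diluted acetone/0.4% TRITON X-155 formulations at 15–240 g a.i./ha (900 L/ha).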

[2] = system: Galium aparine; assay: Pre-emergence test, weed control; conditions: 3 weeks after treatment, rating 0-100 (100=death), Table 1
Method in brief: as §1

[3] = system: Lolium perenne; assay: Pre-emergence test, weed control; conditions: 3 weeks after treatment, rating 0-100 (100=death), Table 1
Method in brief: as §1

[4] = system: Matricaria inodora; assay: Pre-emergence test, weed control; conditions: 3 weeks after treatment, rating 0-100 (100=death), Table 1
Method in brief: as §1

[5] = system: Setaria viridis; assay: Pre-emergence test, weed control; conditions: 3 weeks after treatment, rating 0-100 (100=death), Table 1
Method in brief: as §1

[6] = system: Veronica persica; assay: Pre-emergence test, weed control; conditions: 3 weeks after treatment, rating 0-100 (100=death), Table 1
Method in brief: as §1

[7] = system: HORVW; assay: Pre-emergence test, selectivity; conditions: 3 weeks after treatment, rating 0-100 (100=death), Table 2
Method in brief: as §1

[8] = system: Hordeum vulgare variety “Mammut”; assay: Pre-emergence test, selectivity; conditions: 3 weeks after treatment, rating 0-100 (100=death), Table 2
Method in brief: as §1

[9] = system: Triticum aestivum variety “Kanzler”; assay: Pre-emergence test, selectivity; conditions: 3 weeks after treatment, rating 0-100 (100=death), Table 2
Method in brief: as §1

[10] = system: Triticum aestivum variety “Monopol”; assay: Pre-emergence test, selectivity; conditions: 3 weeks after treatment, rating 0-100 (100=death), Table 2
Method in brief: as §1

[11] = system: Galium aparine; assay: Post-emergence test, weed control; conditions: 2–4 weeks after treatment, rating 0-100 (100=death), Table 5
Experimental: (§2) These acetone solutions are diluted with water and the resulting formulations applied at dosage levels equivalent of about 0.030 to 0.240 kg per hectare of test compound per pot. After spraying the plants are placed an greenhouse benches and are cared for in the usual manner, commensurate with conventional greenhouse practices. From 2 to 4 weeks after treatment, the seedling plants are examined and rated according to the rating system provided above. A rating 0 indicates growth as untreated control, a rating 100 indicates death.

[12] = system: Lamium purpureum; assay: Post-emergence test, weed control; conditions: 2–4 weeks after treatment, rating 0-100 (100=death), Table 5
Experimental: as §2

[13] = system: Matricaria inodora; assay: Post-emergence test, weed control; conditions: 2–4 weeks after treatment, rating 0-100 (100=death), Table 5
Experimental: as §2

[14] = system: Polygonum convolvulus; assay: Post-emergence test, weed control; conditions: 2–4 weeks after treatment, rating 0-100 (100=death), Table 5
Experimental: as §2

[15] = system: Setaria viridis; assay: Post-emergence test, weed control; conditions: 2–4 weeks after treatment, rating 0-100 (100=death), Table 5
Experimental: as §2

[16] = system: Stellaria media; assay: Post-emergence test, weed control; conditions: 2–4 weeks after treatment, rating 0-100 (100=death), Table 5
Experimental: as §2

[17] = system: VIOAR; assay: Post-emergence test, weed control; conditions: 2–4 weeks after treatment, rating 0-100 (100=death), Table 5
Experimental: as §2

[18] = system: Triticum aestivum variety “Kanzler”; assay: Post-emergence test, selectivity; conditions: 2–4 weeks after treatment, rating 0-100 (100=death), Table 6
Experimental: as §2

[19] = system: Triticum aestivum variety “Monopol”; assay: Post-emergence test, selectivity; conditions: 2–4 weeks after treatment, rating 0-100 (100=death), Table 6
Experimental: as §2

[20] = system: wheat; assay: Post-emergence test, tolerance in wheat; conditions: in vivo
Experimental: as §2

## Cc1nc(-c2ccc(C(F)(F)F)cc2)nc(Oc2cccc(C(F)(F)F)c2)c1C [REF-2]
[1]; 0.015 kg/ha
  APESV weed control rating: 80
[1]; 0.030 kg/ha
  APESV weed control rating: 85
[1]; 0.060 kg/ha
  APESV weed control rating: 98
[1]; 0.120 kg/ha
  APESV weed control rating: 100
[1]; 0.240 kg/ha
  APESV weed control rating: 100
[2]; 0.015 kg/ha
  GALAP weed control rating: 0
[2]; 0.030 kg/ha
  GALAP weed control rating: 0
[2]; 0.060 kg/ha
  GALAP weed control rating: 3
[2]; 0.120 kg/ha
  GALAP weed control rating: 5
[2]; 0.240 kg/ha
  GALAP weed control rating: 50
[3]; 0.015 kg/ha
  LOLPE weed control rating: 5
[3]; 0.030 kg/ha
  LOLPE weed control rating: 30
[3]; 0.060 kg/ha
  LOLPE weed control rating: 60
[3]; 0.120 kg/ha
  LOLPE weed control rating: 93
[3]; 0.240 kg/ha
  LOLPE weed control rating: 97
[4]; 0.015 kg/ha
  MATIN weed control rating: 95
[4]; 0.030 kg/ha
  MATIN weed control rating: 98
[4]; 0.060 kg/ha
  MATIN weed control rating: 98
[4]; 0.120 kg/ha
  MATIN weed control rating: 99
[4]; 0.240 kg/ha
  MATIN weed control rating: 99
[5]; 0.015 kg/ha
  SETVI weed control rating: 65
[5]; 0.060 kg/ha
  SETVI weed control rating: 97
[5]; 0.120 kg/ha
  SETVI weed control rating: 100
[5]; 0.240 kg/ha
  SETVI weed control rating: 100
[6]; 0.015 kg/ha
  VERPE weed control rating: 25
[6]; 0.030 kg/ha
  VERPE weed control rating: 99
[6]; 0.060 kg/ha
  VERPE weed control rating: 100
[6]; 0.120 kg/ha
  VERPE weed control rating: 100
[6]; 0.240 kg/ha
  VERPE weed control rating: 100
[7]; 0.030 kg/ha
  HORVW rating (Selectivity): 10
[7]; 0.060 kg/ha
  HORVW rating (Selectivity): 10
[7]; 0.120 kg/ha
  HORVW rating (Selectivity): 20
[7]; 0.240 kg/ha
  HORVW rating (Selectivity): 30
[8]; 0.030 kg/ha
  HORVWM rating (Selectivity): 3
[8]; 0.060 kg/ha
  HORVWM rating (Selectivity): 5
[8]; 0.120 kg/ha
  HORVWM rating (Selectivity): 18
[8]; 0.240 kg/ha
  HORVWM rating (Selectivity): 25
[9]; 0.030 kg/ha
  TRZAWK rating (Selectivity): 1
[9]; 0.060 kg/ha
  TRZAWK rating (Selectivity): 1
[9]; 0.120 kg/ha
  TRZAWK rating (Selectivity): 1
[9]; 0.240 kg/ha
  TRZAWK rating (Selectivity): 5
[10]; 0.030 kg/ha
  TRZAWM rating (Selectivity): 1
[10]; 0.060 kg/ha
  TRZAWM rating (Selectivity): 1
[10]; 0.120 kg/ha
  TRZAWM rating (Selectivity): 2
[10]; 0.240 kg/ha
  TRZAWM rating (Selectivity): 5
[11]; 0.030 kg/ha
  GALAP weed control rating: 50
[11]; 0.060 kg/ha
  GALAP weed control rating: 80
[11]; 0.120 kg/ha
  GALAP weed control rating: 85
[11]; 0.240 kg/ha
  GALAP weed control rating: 85
[12]; 0.030 kg/ha
  LAMPU weed control rating: 85
[12]; 0.060 kg/ha
  LAMPU weed control rating: 90
[12]; 0.120 kg/ha
  LAMPU weed control rating: 92
[12]; 0.240 kg/ha
  LAMPU weed control rating: 93
[13]; 0.030 kg/ha
  MATIN weed control rating: 35
[13]; 0.060 kg/ha
  MATIN weed control rating: 45
[13]; 0.120 kg/ha
  MATIN weed control rating: 55
[13]; 0.240 kg/ha
  MATIN weed control rating: 60
[14]; 0.060 kg/ha
  POLCO weed control rating: 0
[14]; 0.120 kg/ha
  POLCO weed control rating: 25
[14]; 0.240 kg/ha
  POLCO weed control rating: 40
[15]; 0.030 kg/ha
  SETVI weed control rating: 30
[15]; 0.060 kg/ha
  SETVI weed control rating: 55
[15]; 0.120 kg/ha
  SETVI weed control rating: 96
[15]; 0.240 kg/ha
  SETVI weed control rating: 100
[16]; 0.030 kg/ha
  STEME weed control rating: 45
[16]; 0.060 kg/ha
  STEME weed control rating: 50
[16]; 0.120 kg/ha
  STEME weed control rating: 55
[16]; 0.240 kg/ha
  STEME weed control rating: 80
[17]; 0.030 kg/ha
  VIOAR weed control rating: 75
[17]; 0.060 kg/ha
  VIOAR weed control rating: 90
[17]; 0.120 kg/ha
  VIOAR weed control rating: 90
[17]; 0.240 kg/ha
  VIOAR weed control rating: 95
[18]; 0.03 kg/ha
  TRZAWK rating (Selectivity): 3
[18]; 0.06 kg/ha
  TRZAWK rating (Selectivity): 5
[18]; 0.12 kg/ha
  TRZAWK rating (Selectivity): 8
[18]; 0.24 kg/ha
  TRZAWK rating (Selectivity): 10
[19]; 0.03 kg/ha
  TRZAWM rating (Selectivity): 2
[19]; 0.06 kg/ha
  TRZAWM rating (Selectivity): 5
[19]; 0.12 kg/ha
  TRZAWM rating (Selectivity): 8
[19]; 0.24 kg/ha
  TRZAWM rating (Selectivity): 8
[20]
  maximum tolerated dose in wheat / dose at which sufficiently selective in wheat: similarly selective in wheat
